From JP2014001205A, “動物の寄生虫防除剤” (Nissan Chemical Corp, priority 2012, dated 2014) come the findings set out here.

One test has as its system cat flea (Ctenocephalides felis) adults [ネコノミ(Ctenocephalides felis)成虫]. Put plainly: Efficacy test against cat flea (Test Example 1), glass container film contact. It counts as in vivo. The conditions noted are these: 96 h, 10μg/cm2, 5 adults (mixed sex), 25℃, 4 days, duplicate, read-out: efficacy (number of insects with abnormal behaviour due to compound / number released × 100).
With `CCN(C(=O)[C@H](C)CSC)c1cn(-c2cccnc2)nc1Cl` [1−048(S)−(−), (S)−(−)−N−{3−クロロ−1−(ピリジン−3−イル)−1H−ピラゾール−4−イル}−N−エチル−2−メチル−3−(メチルチオ)プロパンアミド], the pest or weed control at 10 µg/cm2 is at least 80%. With `C[C@H](CS(C)(=O)=O)C(=O)N(C)c1cn(-c2cccnc2)nc1Cl` [1−054(S)−(+)], the pest or weed control at 10 µg/cm2 is at least 80%. Turning to `CSCC(C)C(=O)Nc1cn(-c2cccnc2)nc1Cl` (centres unmarked) [1−074], the pest or weed control at 10 µg/cm2 is at least 80%. On to `CCOCC(=O)N(CC)c1cn(-c2cccnc2)nc1Cl` [1−220], for which the pest or weed control at 10 µg/cm2 was at least 80%. Still for that read-out and setting: the same measure for `CCN(C(=O)C(C)SC(C)=O)c1cn(-c2cccnc2)nc1Cl` (centres unmarked) [1−245]: at least 80%; for `CCNC(=O)NCC(=O)N(CC)c1cn(-c2cccnc2)nc1Cl` [1−375]: at least 80%. As to `CCN(C(=O)CSCC(OC)OC)c1cn(-c2cccnc2)nc1Cl` [1−434], the pest or weed control at 10 µg/cm2 was at least 80%. Same read-out and setting: the same measure for `CCN(C(=O)C(=O)Nc1ccccc1)c1cn(-c2cccnc2)nc1Cl` [1−464]: at least 80%; for `CCc1nn(-c2cccnc2)cc1N(CC)C(=O)C(C)CSC` (centres unmarked) [1−484]: at least 80%; for `CC(CS(C)(=O)=O)C(=O)Nc1cn(-c2cccnc2)nc1Cl` (centres unmarked) [1−494]: at least 80%. Turning to `CCN(C(=O)NCC(F)(F)F)c1cn(-c2cccnc2)nc1Cl` [1−501], the pest or weed control at 10 µg/cm2 was at least 80%. Turning to `CCN(C(=O)CCCSC)c1cn(-c2cccnc2)nc1Cl` [1−520], the pest or weed control at 10 µg/cm2 is at least 80%. Still for that read-out and setting: the value for `CC(C)(C)OC(=O)N(CC#N)c1cn(-c2cccnc2)nc1Cl` [1−522] was at least 80%; that for `CCN(C(=O)C(C)CSC)c1cn(-c2cccnc2)nc1C(F)(F)F` (centres unmarked) [1−523] was at least 80%. As to `CCN(C(=O)CCC[S+](C)[O-])c1cn(-c2cccnc2)nc1Cl` (centres unmarked) [1−527], the pest or weed control at 10 µg/cm2 was at least 80%. The same measure, in the same setting: the value for `CCN(C(=O)CCCS(C)(=O)=O)c1cn(-c2cccnc2)nc1Cl` [1−528] was at least 80%; that for `CCNC(=S)Nc1cn(-c2cccnc2)nc1C` [1−549] was at least 80%. As to `CCNC(=O)N(C)c1cn(-c2cccnc2)nc1Cl` [1−551], the pest or weed control at 10 µg/cm2 was at least 80%.

The next test has as its system American dog tick (Dermacentor variabilis) first nymphs [American dog tick(Dermacentor variabilis)第1若虫]. Kind of test: Efficacy test against American dog tick (Test Example 2), glass container film contact. Particulars: 96 h, 10μg/cm2, 5 first nymphs (mixed sex), 25℃, 4 days, duplicate, read-out: efficacy (number with abnormal behaviour due to compound / number released × 100). It counts as in vivo.
For `CON=C(CSC)C(=O)N(C)c1cn(-c2cccnc2)nc1Cl` (single isomer, unassigned) [1−142], the pest or weed control at 10 µg/cm2 is at least 80%. Still for that read-out and setting: the value for `CCON=C(CSC)C(=O)N(CC)c1cn(-c2cccnc2)nc1Cl` (single isomer, unassigned) [1−157] was at least 80%; that for `CSCCC(=O)Nc1cnn(-c2cccnc2)c1` [1−006] was at least 80%. Consider `CSCCC(=O)N(C)c1cn(-c2cccnc2)nc1C` [1−018, N−メチル−N−{3−メチル−1−(ピリジン−3−イル)−1H−ピラゾール−4−イル}−3−(メチルチオ)プロパンアミド], for which the pest or weed control at 10 µg/cm2 is at least 80%. For `Cc1nn(-c2cccnc2)cc1NC(=O)NCC(F)(F)F` [1−032], the pest or weed control at 10 µg/cm2 is at least 80%. Regarding `CCN(C(=O)CCSC)c1cn(-c2cccnc2)nc1Cl` [1−033], the pest or weed control at 10 µg/cm2 was at least 80%. `CS(=O)(=O)C1CCCN(c2cnn(-c3cccnc3)c2)C1=O` (centres unmarked) [1−035]: the pest or weed control at 10 µg/cm2 is at least 80%. Consider `CCN(C(=O)CCSC)c1cnn(-c2cccnc2)c1` [1−044], for which the pest or weed control at 10 µg/cm2 is at least 80%. For `CC(C)(C)OC(=O)Nc1cn(-c2cccnc2)nc1Cl` [1−046, tert−ブチル 3−クロロ−1−(ピリジン−3−イル)−1H−ピラゾール−4−イルカーバメート], the pest or weed control at 10 µg/cm2 is at least 80%.

In the case of `CCN(C(=O)OC(C)(C)C)c1cn(-c2cccnc2)nc1Cl` [1−056, tert−ブチル 3−クロロ−1−(ピリジン−3−イル)−1H−ピラゾール−4−イル(エチル)カーバメート], the pest or weed control at 10 µg/cm2 was at least 80%. As to `CSCCC(=O)Nc1cn(-c2cccnc2)nc1Cl` [1−058], the pest or weed control at 10 µg/cm2 is at least 80%. As to `CCN(C(=O)NCCSC)c1cn(-c2cccnc2)nc1C` [1−060], the pest or weed control at 10 µg/cm2 was at least 80%. For `CCCN(C(=O)CCSC)c1cn(-c2cccnc2)nc1Cl` [1−063], the pest or weed control at 10 µg/cm2 is at least 80%. As for `C=CCN(C(=O)CCSC)c1cn(-c2cccnc2)nc1Cl` [1−064], the pest or weed control at 10 µg/cm2 was at least 80%. On to `CCCN(C(=O)C(C)CSC)c1cn(-c2cccnc2)nc1Cl` (centres unmarked) [1−066], for which the pest or weed control at 10 µg/cm2 is at least 80%. For the compound `CCN(C(=O)COCSC)c1cn(-c2cccnc2)nc1Cl` [1−067], the pest or weed control at 10 µg/cm2 was at least 80%.

For `CCC(CSC)C(=O)N(C)c1cn(-c2cccnc2)nc1Cl` (centres unmarked) [1−084], the pest or weed control at 10 µg/cm2 was at least 80%.

For `COCN(C(=O)C(C)CSC)c1cn(-c2cccnc2)nc1Cl` (centres unmarked) [1−086], the pest or weed control at 10 µg/cm2 is at least 80%.

Take `Cc1nn(-c2cccnc2)cc1N(C)C(N)=O` [1−094]: the pest or weed control at 10 µg/cm2 is at least 80%. Turning to `CCSCC(=O)N(CC)c1cn(-c2cccnc2)nc1Cl` [1−107], the pest or weed control at 10 µg/cm2 was at least 80%. Still for that read-out and setting: the value for `CCN(C(=O)CC[S+](C)[O-])c1cn(-c2cccnc2)nc1C` (centres unmarked) [1−110] was at least 80%; that for `CCN(C(=O)CCSC(C)C)c1cn(-c2cccnc2)nc1Cl` [1−123] was at least 80%. For `CCN(C(=O)CCSCC(F)(F)F)c1cn(-c2cccnc2)nc1Cl` [1−124], the pest or weed control at 10 µg/cm2 was at least 80%.

For `C=C1CCN(c2cn(-c3cccnc3)nc2Cl)C1=O` [1−133, 1−{3−クロロ−1−(ピリジン−3−イル)−1H−ピラゾール−4−イル}−3−メチレンピロリジン−2−オン], the pest or weed control at 10 µg/cm2 was at least 80%. Consider `CSCC(C)(C)C(=O)N(C)c1cn(-c2cccnc2)nc1Cl` [1−134, N−{3−クロロ−1−(ピリジン−3−イル)−1H−ピラゾール−4−イル}−N,2,2−トリメチル−3−(メチルチオ)プロパンアミド], for which the pest or weed control at 10 µg/cm2 was at least 80%. In the case of `CC(=O)N(C)c1cn(-c2cccnc2)nc1Cl` [1−148], the pest or weed control at 10 µg/cm2 is at least 80%. Same read-out and setting: the same measure for `CCN(C(C)=O)c1cn(-c2cccnc2)nc1Cl` [1−149]: at least 80%. As for `CCCC(=O)N(CC)c1cn(-c2cccnc2)nc1Cl` [1−151], the pest or weed control at 10 µg/cm2 is at least 80%. With `C=CC(=O)N(CC)c1cn(-c2cccnc2)nc1Cl` [1−152, N−{3−クロロ−1−(ピリジン−3−イル)−1H−ピラゾール−4−イル}−N−エチルアクリルアミド], the pest or weed control at 10 µg/cm2 was at least 80%.

As to `CCN(C(=O)CC[S+]([O-])CC(F)(F)F)c1cn(-c2cccnc2)nc1Cl` (centres unmarked) [1−154], the pest or weed control at 10 µg/cm2 is at least 80%.

Regarding `CCN(C(=O)CCS(=O)(=O)CC(F)(F)F)c1cn(-c2cccnc2)nc1Cl` [1−155], the pest or weed control at 10 µg/cm2 is at least 80%.

As for `O=C(NCC(F)(F)F)Nc1cn(-c2cccnc2)nc1Cl` [1−158], the pest or weed control at 10 µg/cm2 is at least 80%.

As to `CCN(C(=O)C(CSC)=NOC(C)C)c1cn(-c2cccnc2)nc1Cl` [1−172], the pest or weed control at 10 µg/cm2 is at least 80%. `CCCON=C(CSC)C(=O)N(CC)c1cn(-c2cccnc2)nc1Cl` [1−173]: the pest or weed control at 10 µg/cm2 was at least 80%. On to `CCCCON=C(CSC)C(=O)N(CC)c1cn(-c2cccnc2)nc1Cl` [1−184], for which the pest or weed control at 10 µg/cm2 is at least 80%. As to `CSCCN(C(C)=O)c1cn(-c2cccnc2)nc1Cl` [1−186], the pest or weed control at 10 µg/cm2 is at least 80%.

Turning to `CC(C)(C)OC(=O)Nc1cn(-c2cccnc2)nc1Br` [1−188, tert−ブチル 3−ブロモ−1−(ピリジン−3−イル)−1H−ピラゾール−4−イルカーバメート], the pest or weed control at 10 µg/cm2 is at least 80%. Take `CCN(C(=O)C(C[S+](C)[O-])OC)c1cn(-c2cccnc2)nc1Cl` (centres unmarked) [1−199]: the pest or weed control at 10 µg/cm2 is at least 80%. Same read-out and setting: the same measure for `CCON=C(C[S+](C)[O-])C(=O)N(CC)c1cn(-c2cccnc2)nc1Cl` (centres unmarked) [1−208]: at least 80%; for `CCN(C(=O)C(CSC)c1ccccc1)c1cn(-c2cccnc2)nc1Cl` (centres unmarked) [1−216]: at least 80%; for `C=CCON=C(CSC)C(=O)N(CC)c1cn(-c2cccnc2)nc1Cl` [1−222]: at least 80%. Regarding `CCN(C(=O)C(C)SC(C)C)c1cn(-c2cccnc2)nc1Cl` (centres unmarked) [1−248], the pest or weed control at 10 µg/cm2 is at least 80%. Take `CON=C(COCC(F)(F)F)C(=O)N(C)c1cn(-c2cccnc2)nc1Cl` [1−273]: the pest or weed control at 10 µg/cm2 was at least 80%.

In the case of `CCN(C(=O)CC(=NOC)C(F)(F)F)c1cn(-c2cccnc2)nc1Cl` [1−303], the pest or weed control at 10 µg/cm2 was at least 80%. `CC(C)(C)OC(=O)N(CC(F)(F)F)c1cn(-c2cccnc2)nc1Cl` [1−324]: the pest or weed control at 10 µg/cm2 is at least 80%.

Turning to `CC(C)(C)OC(=O)N(CC1CC1)c1cn(-c2cccnc2)nc1Cl` [1−343], the pest or weed control at 10 µg/cm2 is at least 80%. `CCSC(C)C(=NOC)Nc1cn(-c2cccnc2)nc1Cl` (centres unmarked) [1−356, N−{3−クロロ−1−(ピリジン−3−イル)−1H−ピラゾール−4−イル}−2−(エチルチオ)−N’−メトキシプロパンイミダミド]: the pest or weed control at 10 µg/cm2 is at least 80%. Still for that read-out and setting: the value for `CCN(C(=O)CC(CSC)=NOC)c1cn(-c2cccnc2)nc1Cl` [1−367] was at least 80%; that for `CCN(C(=O)OC(C)(C)C)c1cn(-c2cccnc2)nc1OC` [1−395] was at least 80%. With `CCN(C(=O)CNC(=O)C(F)(F)F)c1cn(-c2cccnc2)nc1Cl` [1−409], the pest or weed control at 10 µg/cm2 was at least 80%. The same measure, in the same setting: the same measure for `CCN(C(=O)CCC(F)=C(F)F)c1cn(-c2cccnc2)nc1Cl` [1−418]: at least 80%; for `CCN(C(=O)COC(C)(C)C)c1cn(-c2cccnc2)nc1Cl` [1−439]: at least 80%; for `CCSC(C)C(=S)Nc1cnn(-c2cccnc2)c1` (centres unmarked) [1−480]: at least 80%. For the compound `CCN(C(=O)C(C)CS(C)(=O)=O)c1cn(-c2cccnc2)nc1C` (centres unmarked) [1−490], the pest or weed control at 10 µg/cm2 was at least 80%.

In the case of `CSCC(=O)N(C)C(C)=Nc1cn(-c2cccnc2)nc1C` [3−004, N−メチル−N−[1−{3−メチル−1−(ピリジン−3−イル)−1H−ピラゾール−4−イルイミノ}エチル]−2−(メチルチオ)アセタミド], the pest or weed control at 10 µg/cm2 was at least 80%.

The test is the same for the next values; noted with them: 96 h, read-out: efficacy (number with abnormal behaviour due to compound / number released × 100).
Consider `CCN(C(=O)C(CSC)=NOCC[Si](C)(C)C)c1cn(-c2cccnc2)nc1Cl` [1−268], for which the pest or weed control at 10 µg/cm2 is at least 80%.
